The target in assay [1] is T1, human A2B adenosine receptor (Homo sapiens, UniProt P29275).
T1 construct: expressed in transfected cells; host or cells: CHO cells, stably transfected; membrane preparation
T1 sequence (P29275 1-332): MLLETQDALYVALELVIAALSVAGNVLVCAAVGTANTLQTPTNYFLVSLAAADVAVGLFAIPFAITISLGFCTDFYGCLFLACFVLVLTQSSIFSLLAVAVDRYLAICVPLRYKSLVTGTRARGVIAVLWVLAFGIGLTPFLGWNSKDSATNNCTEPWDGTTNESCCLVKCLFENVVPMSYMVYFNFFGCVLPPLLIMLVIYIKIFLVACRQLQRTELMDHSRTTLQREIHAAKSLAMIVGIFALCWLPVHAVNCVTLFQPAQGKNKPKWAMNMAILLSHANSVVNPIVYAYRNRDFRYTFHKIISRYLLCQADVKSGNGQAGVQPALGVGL
Put plainly: Radioligand binding, displacement of [3H]ZM241385 at human A2B receptors expressed in CHO cells. As to conditions: 10 nM [3H]ZM241385, CHO cell membranes, 3 h room temperature; geometric mean with 95% confidence limits; reported for the first time; read-out: hA2B (Ki nM). The protocol:
All pharmacological methods followed the procedures described earlier. In brief, membranes for radioligand binding were prepared from CHO cells stably transfected with human adenosine receptor subtype (obtained as reported in reference) in a two-step procedure. In a first low-speed step (1000× g), cell fragments and nuclei were removed. The crude membrane fraction was sedimented from the supernatant at 100,000× g. The membrane pellet was resuspended in the buffer used for the respective binding experiments, frozen in liquid nitrogen, and stored at −80 °C.
Compounds were dissolved in DMSO and then diluted to the desired concentration in buffer, and at least 6 different concentrations were tested. DMSO in the final solution never exceeded 2%. For radioligand binding at A1 adenosine receptors, 1 nM [^3H]CCPA was used, whereas 30 and 10 nM [^3H]NECA were used for A2A and A3 receptors, respectively. Non-specific binding of [^3H]CCPA was determined in the presence of 1 mM theophylline; in the case of [^3H]NECA, 100 µM R-PIA was used. For radioligand binding assay of compounds 1–4 at A2B receptors, membranes (20 µg membrane protein) were incubated in a total volume of 200 µL (assay buffer: Tris/HCl pH 7.4, 10 mM MgCl2, 0.1% bovine serum albumin) with 10 nM [^3H]ZM241385. Non-specific binding of [^3H]ZM241385 was determined in the presence of 0.3 mM NECA. After 3 h at room temperature, samples were filtered and washed as described. Ki values from competition experiments were calculated with the program SCTFIT [32] and represented the mean of 3–6 replicates with 95% confidence limits.

For a further assay, the target named is hA2B adenosine receptor. Further details: method as in PMID 19501513, PMID 19908874. The settings on record: NECA (5 μM)-stimulated adenylyl cyclase, hA2B-CHO membranes; geometric mean with 95% confidence limits; cited from earlier work.
Assay [2] addresses human A3 adenosine receptor. As to conditions: [3H]NECA, geometric mean with 95% confidence limits, read-out: hA3 (Ki nM), cited from earlier work.
The target in assay [3] is human A1 adenosine receptor. The settings on record: [3H]CCPA, geometric mean with 95% confidence limits, read-out: hA1 (Ki nM), cited from earlier work.
Assay [4] concerns the target human A2A adenosine receptor. The settings on record: [3H]NECA, geometric mean with 95% confidence limits, read-out: hA2A (Ki nM), cited from earlier work.
The mark [5] stands for this setting: CHO cell membranes, compounds 1-7.

Results on 12 compounds are retold here after PMC10669182, “Pyrazolo-triazolo-pyrimidine Scaffold as a Molecular Passepartout for the Pan-Recognition of Human Adenosine Receptors” (Biomolecules, 2023).

Structures are written as SMILES. Read-outs that look alike come from different tables or passages of the source.

On to `Cn1cc2c(nc(NC(=O)C(c3ccccc3)c3ccccc3)n3nc(-c4ccco4)nc23)n1` [Compound 1], for which the inhibitory constant (Ki) in assay [1] was 29.1 nM; in assay [2] (setting [5]), 0.25 nM; in assay [3] (setting [5]), 139 nM; in assay [4] (setting [5]) it was 216 nM. The IC50 on hA2B adenosine receptor is 363 nM.

In the case of `CCn1cc2c(nc(NC(=O)C(c3ccccc3)c3ccccc3)n3nc(-c4ccco4)nc23)n1` [Compound 2], the Ki in assay [1] is 18.3 nM; in assay [2] (setting [5]) it was 0.98 nM; in assay [3] (setting [5]) it was 156 nM; in assay [4] (setting [5]), 131 nM. For the same compound, the IC50 at hA2B adenosine receptor was 745 nM.

As to `Cn1cc2c(nc(NC(=O)Cc3cccs3)n3nc(-c4ccco4)nc23)n1` [Compound 7], the IC50 on hA2B adenosine receptor was over 10000 nM. Also, the inhibition constant Ki in assay [2] (setting [5]) was 5.26 nM; in assay [3] (setting [5]), 444 nM; in assay [4] (setting [5]), 56 nM.

In the case of `CC(C)CCn1cc2c(nc(NC(=O)C(c3ccccc3)c3ccccc3)n3nc(-c4ccco4)nc23)n1` [Compound 5], the IC50 on hA2B adenosine receptor was over 10000 nM. Moreover, the values for the Ki in assay [2] (setting [5]), in assay [3] (setting [5]) and in assay [4] (setting [5]) were 5.86 nM, 441 nM and 159 nM, respectively.

As to `CCn1cc2c(nc(NC(=O)Cc3cccs3)n3nc(-c4ccco4)nc23)n1` [Compound 6], the IC50 on hA2B adenosine receptor is over 10000 nM. Besides, the Ki was 196 nM in assay [2] (setting [5]), 148 nM in assay [3] (setting [5]) and 15.9 nM in assay [4] (setting [5]).

As for `CCCCn1cc2c(nc(NC(=O)C(c3ccccc3)c3ccccc3)n3nc(-c4ccco4)nc23)n1` [Compound 4], the IC50 on hA2B adenosine receptor was 780 nM. Moreover, the results for the Ki in assay [2] (setting [5]), in assay [3] (setting [5]) and in assay [4] (setting [5]) were 1.2 nM, 129 nM and 114 nM, respectively.

In the case of `CCCCn1cc2c(nc(N)n3nc(-c4ccco4)nc23)n1` [Compound 11], the Ki in assay [2] (CHO cells, compounds 8-12) was 600 nM; in assay [3] (CHO cells, compounds 8-12), 14 nM; in assay [4] (CHO cells, compounds 8-12), 1.6 nM.

In the case of `Cn1cc2c(nc(N)n3nc(-c4ccco4)nc23)n1` [Compound 8], the Ki is 300 nM in assay [2] (CHO cells, compounds 8-12); 101 nM in assay [3] (CHO cells, compounds 8-12); 2.8 nM in assay [4] (CHO cells, compounds 8-12).

For `CCCn1cc2c(nc(NC(=O)C(c3ccccc3)c3ccccc3)n3nc(-c4ccco4)nc23)n1` [Compound 3], the Ki is 13.3 nM in assay [1], 0.93 nM in assay [2] (setting [5]), 80.2 nM in assay [3] (setting [5]) and 46.5 nM in assay [4] (setting [5]). Further, the IC50 at hA2B adenosine receptor is 491 nM.

Take `CCCn1cc2c(nc(N)n3nc(-c4ccco4)nc23)n1` [Compound 10]: the Ki in assay [2] (CHO cells, compounds 8-12) is 408 nM; in assay [3] (CHO cells, compounds 8-12), 10 nM; in assay [4] (CHO cells, compounds 8-12) it was 2.51 nM.

For the compound `CCn1cc2c(nc(N)n3nc(-c4ccco4)nc23)n1` [Compound 9], the Ki is 331 nM in assay [2] (CHO cells, compounds 8-12); 5 nM in assay [3] (CHO cells, compounds 8-12); 1.95 nM in assay [4] (CHO cells, compounds 8-12).

As to `CC(C)CCn1cc2c(nc(N)n3nc(-c4ccco4)nc23)n1` [Compound 12], the Ki in assay [2] (CHO cells, compounds 8-12) was 700 nM; in assay [3] (CHO cells, compounds 8-12), 2 nM.
